This note sets out measurements from US8580557B2, “Casein hydrolyzate, process for producing the same and use thereof” (Calpis Co., Ltd., priority 2003, dated 2013).

This assay relates to spontaneously hypertensive rats (SHR). Put plainly: Hypotensive effect after oral administration, tail-cuff method. It is filed as in vivo, rat. Particulars: SHR (male), 32 mg/kg body weight, 5 hours after administration vs before. As to the method:
Each of the casein hydrolysate powders prepared in Example and Comparative Examples shown in Table 1 were administered orally to five 27-week-old spontaneously hypertensive rats (SHR) (male) at a dose of 32 mg/kg body weight. Blood pressure was measured before the administration and 5 hours after the administration by tail-cuff method with Tail-cuff PB-98 (manufacture by SOFTRON) to evaluate the change in blood pressure. As a control, casein was administered instead of the powders, and the same evaluation was made. Before the measurement of blood pressure, rats were warmed in a preheat box (manufactured by CSI JAPAN) at 45° C. for 8 minutes.
Further, in accordance with the above method, a dose-dependent hypotensive effect was tested using the casein hydrolysate powders prepared in Example 1.

casein [Control]: the “Blood pressure drop (average ± SD)” value was −2.5 ± 7.5. Moreover, the “Blood pressure drop (average ± SD)” value (listed as casein) is listed as “no change in blood pressure was observed”.
